# Compound: NC(=O)CCCCC1CCSS1 [lipoamide]
# Assay: thermal stability z-score vs DMSO; higher = more thermally stabilized by treatment
# Details: HeLa; lipoamide concentration 100 µM; arsenate co-treatment: none
# Description: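 Cellular thermal proteome profiling in HeLa cells. Cells were treated with 100 µM lipoamide for 1 h, with or without 1 mM arsenate for a further 1 h, then heated to ten temperatures (37-66.3 °C), and soluble protein was quantified by TMT mass spectrometry relative to 0.1% DMSO controls. The thermal stability score (sum of log2 fold changes minus the abundance score) was transformed to a z-score; mean of n = 3 experiments.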
# 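Also: each temperature applied for 3 min, abundance score taken as mean log2 fold change at the two lowest temperatures, z-score obtained by mean subtraction and division by SD.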
# UniProt Q3YEC7, sequence (Q3YEC7 whole entry): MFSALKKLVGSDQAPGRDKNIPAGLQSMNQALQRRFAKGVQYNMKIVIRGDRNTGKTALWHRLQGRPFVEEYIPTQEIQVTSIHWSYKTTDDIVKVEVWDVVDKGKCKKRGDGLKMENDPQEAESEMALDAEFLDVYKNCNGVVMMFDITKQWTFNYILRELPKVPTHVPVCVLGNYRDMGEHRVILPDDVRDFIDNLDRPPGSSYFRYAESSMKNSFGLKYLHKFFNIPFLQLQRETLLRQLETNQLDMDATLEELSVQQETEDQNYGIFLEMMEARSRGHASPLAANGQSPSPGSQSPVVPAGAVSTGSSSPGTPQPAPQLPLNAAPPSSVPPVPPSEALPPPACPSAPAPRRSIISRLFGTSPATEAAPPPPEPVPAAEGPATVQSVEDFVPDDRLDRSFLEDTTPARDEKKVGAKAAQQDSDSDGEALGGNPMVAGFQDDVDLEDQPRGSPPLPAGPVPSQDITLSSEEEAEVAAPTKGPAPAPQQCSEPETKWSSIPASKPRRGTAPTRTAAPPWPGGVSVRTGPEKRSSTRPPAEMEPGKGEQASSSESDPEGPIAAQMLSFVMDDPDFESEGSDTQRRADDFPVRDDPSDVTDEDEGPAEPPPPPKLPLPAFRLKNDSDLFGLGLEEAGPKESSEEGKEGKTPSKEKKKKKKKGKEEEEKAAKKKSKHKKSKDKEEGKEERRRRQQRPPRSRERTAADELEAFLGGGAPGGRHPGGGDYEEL
# UniProt O43314, sequence (O43314 whole entry): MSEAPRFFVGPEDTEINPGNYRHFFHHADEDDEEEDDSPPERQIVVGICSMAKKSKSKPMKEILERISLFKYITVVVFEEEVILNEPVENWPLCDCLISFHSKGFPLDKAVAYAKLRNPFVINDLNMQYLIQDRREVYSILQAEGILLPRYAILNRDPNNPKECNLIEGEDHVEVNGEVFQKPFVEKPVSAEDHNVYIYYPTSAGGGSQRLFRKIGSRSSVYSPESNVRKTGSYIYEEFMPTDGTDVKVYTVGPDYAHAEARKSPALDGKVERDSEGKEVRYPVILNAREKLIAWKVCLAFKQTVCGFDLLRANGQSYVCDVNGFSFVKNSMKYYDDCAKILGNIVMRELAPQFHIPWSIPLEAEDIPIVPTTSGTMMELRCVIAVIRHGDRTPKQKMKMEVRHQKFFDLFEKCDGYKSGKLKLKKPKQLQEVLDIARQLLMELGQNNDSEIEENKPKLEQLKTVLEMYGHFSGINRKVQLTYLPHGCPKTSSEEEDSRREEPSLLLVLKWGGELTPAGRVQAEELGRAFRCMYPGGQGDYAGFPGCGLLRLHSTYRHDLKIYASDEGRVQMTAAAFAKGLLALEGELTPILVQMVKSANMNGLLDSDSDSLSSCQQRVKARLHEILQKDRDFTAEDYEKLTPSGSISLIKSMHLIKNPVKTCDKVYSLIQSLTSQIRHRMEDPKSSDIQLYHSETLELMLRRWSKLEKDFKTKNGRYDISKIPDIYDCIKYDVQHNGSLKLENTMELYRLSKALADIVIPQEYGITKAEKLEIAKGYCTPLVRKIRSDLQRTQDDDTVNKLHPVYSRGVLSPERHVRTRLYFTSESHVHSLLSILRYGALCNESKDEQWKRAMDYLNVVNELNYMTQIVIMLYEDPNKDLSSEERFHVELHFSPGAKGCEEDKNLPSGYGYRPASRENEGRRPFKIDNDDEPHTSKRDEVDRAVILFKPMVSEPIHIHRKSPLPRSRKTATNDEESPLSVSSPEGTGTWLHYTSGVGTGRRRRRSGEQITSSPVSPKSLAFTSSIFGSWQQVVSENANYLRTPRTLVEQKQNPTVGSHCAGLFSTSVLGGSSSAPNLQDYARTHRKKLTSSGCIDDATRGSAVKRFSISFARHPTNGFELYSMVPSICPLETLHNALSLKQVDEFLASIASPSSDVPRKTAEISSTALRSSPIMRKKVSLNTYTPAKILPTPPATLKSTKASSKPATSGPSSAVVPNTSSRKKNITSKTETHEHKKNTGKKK
# UniProt Q9BWM7, sequence (Q9BWM7 whole entry): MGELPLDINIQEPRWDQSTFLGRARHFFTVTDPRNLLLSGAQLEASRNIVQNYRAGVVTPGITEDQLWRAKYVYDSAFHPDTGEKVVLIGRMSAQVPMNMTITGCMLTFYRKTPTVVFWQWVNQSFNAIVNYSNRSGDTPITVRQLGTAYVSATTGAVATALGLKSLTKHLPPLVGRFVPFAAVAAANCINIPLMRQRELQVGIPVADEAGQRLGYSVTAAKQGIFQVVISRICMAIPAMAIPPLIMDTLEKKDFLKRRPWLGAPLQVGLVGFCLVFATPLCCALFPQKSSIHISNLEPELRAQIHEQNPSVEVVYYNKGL
# UniProt Q9H8H0, sequence (Q9H8H0 whole entry): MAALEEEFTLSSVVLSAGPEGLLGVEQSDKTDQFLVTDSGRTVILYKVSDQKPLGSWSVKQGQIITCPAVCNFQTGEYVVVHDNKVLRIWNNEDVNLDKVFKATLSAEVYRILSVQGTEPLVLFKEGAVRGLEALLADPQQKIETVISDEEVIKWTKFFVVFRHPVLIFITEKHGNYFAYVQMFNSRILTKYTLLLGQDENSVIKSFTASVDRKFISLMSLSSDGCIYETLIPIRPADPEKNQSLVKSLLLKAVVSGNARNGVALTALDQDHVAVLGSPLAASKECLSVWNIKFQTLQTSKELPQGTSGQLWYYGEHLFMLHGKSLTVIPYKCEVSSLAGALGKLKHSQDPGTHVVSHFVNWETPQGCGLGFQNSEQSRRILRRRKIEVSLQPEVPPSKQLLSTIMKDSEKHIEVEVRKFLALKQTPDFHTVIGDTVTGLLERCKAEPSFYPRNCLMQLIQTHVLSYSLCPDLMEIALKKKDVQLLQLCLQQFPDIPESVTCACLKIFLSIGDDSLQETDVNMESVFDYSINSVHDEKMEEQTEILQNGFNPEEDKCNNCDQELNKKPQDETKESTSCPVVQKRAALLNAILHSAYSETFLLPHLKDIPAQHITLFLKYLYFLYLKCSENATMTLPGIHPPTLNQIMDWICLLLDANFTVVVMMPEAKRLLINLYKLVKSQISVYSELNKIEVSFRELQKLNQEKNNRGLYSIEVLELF
# UniProt Q8TED0, sequence (Q8TED0 whole entry): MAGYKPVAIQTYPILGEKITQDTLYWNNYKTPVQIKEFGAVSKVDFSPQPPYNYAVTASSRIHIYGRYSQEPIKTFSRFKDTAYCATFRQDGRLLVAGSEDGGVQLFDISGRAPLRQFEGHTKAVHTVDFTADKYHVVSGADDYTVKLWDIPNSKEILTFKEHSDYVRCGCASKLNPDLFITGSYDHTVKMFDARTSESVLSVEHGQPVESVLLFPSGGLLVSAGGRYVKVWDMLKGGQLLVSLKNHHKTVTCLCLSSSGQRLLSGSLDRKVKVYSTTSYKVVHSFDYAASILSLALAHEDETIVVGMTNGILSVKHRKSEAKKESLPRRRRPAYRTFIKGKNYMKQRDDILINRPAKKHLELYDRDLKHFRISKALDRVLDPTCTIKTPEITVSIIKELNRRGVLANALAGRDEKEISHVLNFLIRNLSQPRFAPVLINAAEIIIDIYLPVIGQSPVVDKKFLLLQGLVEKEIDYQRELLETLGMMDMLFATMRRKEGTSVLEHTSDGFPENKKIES
# UniProt Q9Y294, sequence (Q9Y294 whole entry): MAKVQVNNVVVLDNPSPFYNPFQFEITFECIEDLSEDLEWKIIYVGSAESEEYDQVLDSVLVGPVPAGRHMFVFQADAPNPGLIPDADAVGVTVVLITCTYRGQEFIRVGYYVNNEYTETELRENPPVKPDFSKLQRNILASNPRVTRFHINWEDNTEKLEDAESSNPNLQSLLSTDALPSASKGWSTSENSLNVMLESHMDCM
# UniProt Q8WVT3, sequence (Q8WVT3 whole entry): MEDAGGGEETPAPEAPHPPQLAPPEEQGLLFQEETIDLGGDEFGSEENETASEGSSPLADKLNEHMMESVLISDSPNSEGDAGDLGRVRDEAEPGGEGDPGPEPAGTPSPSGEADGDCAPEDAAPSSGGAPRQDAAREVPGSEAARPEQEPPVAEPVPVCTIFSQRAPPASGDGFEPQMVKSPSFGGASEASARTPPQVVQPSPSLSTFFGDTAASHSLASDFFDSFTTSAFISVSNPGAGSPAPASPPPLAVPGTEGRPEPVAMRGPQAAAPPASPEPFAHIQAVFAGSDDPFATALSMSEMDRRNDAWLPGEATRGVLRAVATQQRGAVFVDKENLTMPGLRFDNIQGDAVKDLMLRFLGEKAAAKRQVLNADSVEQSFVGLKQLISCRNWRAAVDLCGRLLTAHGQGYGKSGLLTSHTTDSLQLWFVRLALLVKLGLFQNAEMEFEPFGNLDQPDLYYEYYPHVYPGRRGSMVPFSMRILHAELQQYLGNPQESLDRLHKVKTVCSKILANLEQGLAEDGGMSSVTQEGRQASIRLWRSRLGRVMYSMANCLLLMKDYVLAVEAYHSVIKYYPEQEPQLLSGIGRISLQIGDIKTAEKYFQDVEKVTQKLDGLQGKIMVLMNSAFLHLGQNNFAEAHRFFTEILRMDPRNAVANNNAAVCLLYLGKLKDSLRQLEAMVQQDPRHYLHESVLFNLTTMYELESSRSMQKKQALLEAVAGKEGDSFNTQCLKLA
# UniProt Q9UHK6, sequence (Q9UHK6 whole entry): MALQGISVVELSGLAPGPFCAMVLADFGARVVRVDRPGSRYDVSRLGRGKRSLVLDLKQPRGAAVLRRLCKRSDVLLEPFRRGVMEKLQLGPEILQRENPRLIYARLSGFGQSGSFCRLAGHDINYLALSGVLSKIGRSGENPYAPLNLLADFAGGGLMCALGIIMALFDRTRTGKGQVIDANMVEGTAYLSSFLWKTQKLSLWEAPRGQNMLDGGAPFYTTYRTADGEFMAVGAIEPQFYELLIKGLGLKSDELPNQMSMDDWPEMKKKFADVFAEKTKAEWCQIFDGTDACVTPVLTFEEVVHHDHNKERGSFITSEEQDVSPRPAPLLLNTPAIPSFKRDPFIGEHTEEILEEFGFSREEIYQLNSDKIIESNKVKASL
# UniProt P62253, sequence (P62253 whole entry): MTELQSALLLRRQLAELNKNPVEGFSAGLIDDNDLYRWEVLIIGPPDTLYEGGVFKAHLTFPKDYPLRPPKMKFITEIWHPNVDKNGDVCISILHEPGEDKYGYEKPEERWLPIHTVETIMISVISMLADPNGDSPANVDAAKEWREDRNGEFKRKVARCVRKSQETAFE
row,Target,thermal stability z-score
1,UBE2G1 (UniProt P62253),0.286
2,KIAA0196 (UniProt Q12768),0.0446
3,MORC3 (UniProt Q14149),-0.119
4,PLK1 (UniProt P53350),-0.233
5,ASF1A (UniProt Q9Y294),-0.202
6,UTP15 (UniProt Q8TED0),0.147
7,TRAPPC12 (UniProt Q8WVT3),-1.04
8,PPIP5K2 (UniProt O43314),0.00428
9,ROCK1 (UniProt Q13464),0.211
10,RABL6 (UniProt Q3YEC7),-0.754
11,PDHA1 (UniProt P08559),0.295
12,TUBB6 (UniProt Q9BUF5),0.0923
13,XRCC6 (UniProt P12956),0.0871
14,YY1 (UniProt P25490),-0.101
15,EVI5 (UniProt O60447),0.322
16,TRIM27 (UniProt P14373),-0.0794
17,SH3GLB2 (UniProt Q9NR46),0.468
18,RASSF5 (UniProt Q8WWW0),-0.459
19,OCRL (UniProt Q01968),0.13
20,AMACR (UniProt Q9UHK6),-0.138
21,TFCP2 (UniProt Q12800),0.69
22,NOL11 (UniProt Q9H8H0),0.00868
23,DNM2 (UniProt P50570),-0.287
24,ANAPC4 (UniProt Q9UJX5),-0.278
25,NTPCR (UniProt Q9BSD7),-0.905
26,NUP58 (UniProt Q9BVL2),0.178
27,DDX55 (UniProt Q8NHQ9),0.58
28,SFXN3 (UniProt Q9BWM7),0.279

# Compound: O=[As]([O-])(O)O.[K+] [potassium arsenate]
# Assay: as above
# Details: HeLa; arsenate concentration 1 mM
# Description: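 Cellular thermal proteome profiling in HeLa cells treated with 1 mM arsenate for 1 h (DMSO pretreatment), heated to ten temperatures (37-66.3 °C). Soluble protein was quantified by TMT mass spectrometry relative to DMSO controls; the thermal stability score was transformed to a z-score; mean of n = 3 experiments.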
row,Target,thermal stability z-score
1,NAPA (UniProt P54920),1.02
2,METTL13 (UniProt Q8N6R0),0.0691
3,TMEM57 (UniProt Q8N5G2),-0.249
4,WBSCR16 (UniProt Q96I51),0.683
5,HOMER3 (UniProt Q9NSC5),0.462
6,HS2ST1 (UniProt Q7LGA3),0.457
7,RFX1 (UniProt P22670),0.128
8,FADS3 (UniProt Q9Y5Q0),-0.618
9,WRB (UniProt O00258),-0.55
10,MED12 (UniProt Q93074),0.0377
11,PHAX (UniProt Q9H814),0.321
12,PTPN12 (UniProt Q05209),-0.087
13,VPS37B (UniProt Q9H9H4),-0.0299
14,SBF2 (UniProt Q86WG5),-0.179
15,SZRD1 (UniProt Q7Z422),-0.0744
16,KIAA1468 (UniProt Q9P260),-0.0466
17,HOOK2 (UniProt Q96ED9),-0.0139
18,NUDT12 (UniProt Q9BQG2),0.253
19,LARS (UniProt Q9P2J5),0.86
20,MBD4 (UniProt O95243),-0.571
21,SETDB1 (UniProt Q15047),-0.254
22,RPL37A (UniProt P61513),-0.29
23,UMPS (UniProt P11172),-1.02
24,KIAA0391 (UniProt O15091),-0.0848
25,IQGAP3 (UniProt Q86VI3),-0.171
26,USP3 (UniProt Q9Y6I4),-2.27
27,CHD6 (UniProt Q8TD26),-0.0483
28,UBE2G1 (UniProt P62253),0.0592

row,Target,thermal stability z-score
1,KIAA0196 (UniProt Q12768),0.0921
2,MORC3 (UniProt Q14149),-0.054
3,PLK1 (UniProt P53350),-0.584
4,ASF1A (UniProt Q9Y294),-0.103
5,UTP15 (UniProt Q8TED0),0.528
6,TRAPPC12 (UniProt Q8WVT3),0.0727
7,PPIP5K2 (UniProt O43314),-0.606
8,ROCK1 (UniProt Q13464),-0.122
9,RABL6 (UniProt Q3YEC7),-0.246
10,PDHA1 (UniProt P08559),-2.51
11,TUBB6 (UniProt Q9BUF5),0.532
12,XRCC6 (UniProt P12956),-0.634
13,YY1 (UniProt P25490),0.338
14,EVI5 (UniProt O60447),0.704
15,TRIM27 (UniProt P14373),-0.874
16,SH3GLB2 (UniProt Q9NR46),0.364
17,RASSF5 (UniProt Q8WWW0),0.498
18,OCRL (UniProt Q01968),0.24
19,AMACR (UniProt Q9UHK6),0.504
20,TFCP2 (UniProt Q12800),0.147
21,NOL11 (UniProt Q9H8H0),-0.0716
22,DNM2 (UniProt P50570),0.304
23,ANAPC4 (UniProt Q9UJX5),-1.3
24,NTPCR (UniProt Q9BSD7),-0.753
25,NUP58 (UniProt Q9BVL2),0.865
26,DDX55 (UniProt Q8NHQ9),0.0246
27,SFXN3 (UniProt Q9BWM7),0.16

# Source: the supplement of paper PMC12463676, “Small-molecule dissolution of stress granules by redox modulation benefits ALS models” (Nature Chemical Biology, 2025)
